Data published in ChEMBL document CHEMBL5543147, “Discovery and Characterization of a Novel Cereblon-Recruiting PRC1 Bridged PROTAC Degrader” (J Med Chem, 2024).
Active and inactive are the calls of the source. The rule behind the calls is not given here.

Legend:
MDA-MB-468 [1] = assay: Induction of PRC1 degradation in human MDA-MB-468 cells assessed as reduction of H2AK119ub chromatin mark at 0.2 to 5 uM incubated for 24 hrs by Western blotting analysis; type: cell-based; conditions: dose 0.2-5 µM
[2] = biological target: von Hippel-Lindau disease tumor suppressor/Polycomb protein EED (Homo sapiens, UniProt O75530+P40337); assay: PROTAC activity at VHL/EED in human KARPAS-422 cells assessed as degradation of EED protein expression by Western blotting analysis; type: cell-based
Sequence of von Hippel-Lindau disease tumor suppressor/Polycomb protein EED (O75530 whole entry): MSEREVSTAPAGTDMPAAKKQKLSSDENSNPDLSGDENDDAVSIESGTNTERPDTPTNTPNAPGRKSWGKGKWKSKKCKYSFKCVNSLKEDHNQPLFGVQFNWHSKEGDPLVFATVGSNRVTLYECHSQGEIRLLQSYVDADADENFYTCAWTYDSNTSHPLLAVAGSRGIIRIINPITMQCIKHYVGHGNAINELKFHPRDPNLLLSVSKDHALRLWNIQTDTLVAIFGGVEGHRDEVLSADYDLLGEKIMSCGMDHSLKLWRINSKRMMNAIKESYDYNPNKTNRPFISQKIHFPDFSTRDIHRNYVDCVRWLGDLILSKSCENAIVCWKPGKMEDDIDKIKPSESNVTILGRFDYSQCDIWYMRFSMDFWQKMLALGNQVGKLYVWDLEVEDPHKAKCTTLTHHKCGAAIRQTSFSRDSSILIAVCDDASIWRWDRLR
Sequence of von Hippel-Lindau disease tumor suppressor/Polycomb protein EED (P40337 whole entry): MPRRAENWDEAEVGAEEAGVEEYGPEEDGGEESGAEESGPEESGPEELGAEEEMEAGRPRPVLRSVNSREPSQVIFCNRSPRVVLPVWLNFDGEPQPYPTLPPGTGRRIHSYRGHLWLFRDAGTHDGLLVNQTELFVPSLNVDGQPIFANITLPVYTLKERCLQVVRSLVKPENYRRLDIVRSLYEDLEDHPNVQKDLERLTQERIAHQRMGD

[3] = biological target: T1, Protein cereblon/Polycomb protein EED (Homo sapiens, UniProt O75530+Q96SW2); assay: PROTAC activity at CRBN/EED in human MDA-MB-468 cells assessed as degradation of EED protein expression at 0.2 to 5 uM incubated for 24 hrs by Western blotting analysis; type: cell-based; conditions: dose 0.2-5 µM
T1 sequence (O75530 2-441 limits assumed): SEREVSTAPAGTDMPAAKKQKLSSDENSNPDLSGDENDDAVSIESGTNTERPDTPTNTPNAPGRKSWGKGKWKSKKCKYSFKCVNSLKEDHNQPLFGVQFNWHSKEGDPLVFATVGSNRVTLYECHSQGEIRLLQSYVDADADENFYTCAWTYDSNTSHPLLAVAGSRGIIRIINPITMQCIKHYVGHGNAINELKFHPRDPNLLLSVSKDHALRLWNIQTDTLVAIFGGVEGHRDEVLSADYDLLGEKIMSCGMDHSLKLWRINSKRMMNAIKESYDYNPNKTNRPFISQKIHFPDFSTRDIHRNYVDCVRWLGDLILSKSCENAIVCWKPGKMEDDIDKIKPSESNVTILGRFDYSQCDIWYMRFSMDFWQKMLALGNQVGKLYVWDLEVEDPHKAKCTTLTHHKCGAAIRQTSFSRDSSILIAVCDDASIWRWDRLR
T1 sequence (Q96SW2 whole entry partner): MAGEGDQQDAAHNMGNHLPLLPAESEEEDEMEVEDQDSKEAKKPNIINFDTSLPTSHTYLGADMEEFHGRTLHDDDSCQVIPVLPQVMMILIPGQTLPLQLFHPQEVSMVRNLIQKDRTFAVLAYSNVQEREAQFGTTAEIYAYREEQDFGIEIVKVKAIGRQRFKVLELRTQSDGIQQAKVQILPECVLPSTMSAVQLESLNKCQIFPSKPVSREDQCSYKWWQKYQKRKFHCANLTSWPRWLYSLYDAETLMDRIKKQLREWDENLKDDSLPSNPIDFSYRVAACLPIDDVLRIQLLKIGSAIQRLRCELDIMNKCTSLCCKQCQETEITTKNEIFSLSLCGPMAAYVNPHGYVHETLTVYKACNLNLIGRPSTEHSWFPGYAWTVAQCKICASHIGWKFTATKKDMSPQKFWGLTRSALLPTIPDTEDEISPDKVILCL

[4] = biological target: T2, Protein cereblon/Polycomb protein SUZ12 (Homo sapiens) (UniProt Q15022+Q96SW2); assay: PROTAC activity at CRBN/SUZ12 in human PC-3M cells assessed as degradation of SUZ12 protein expression at 0.2 to 5 uM incubated for 24 hrs by Western blotting analysis; type: cell-based; conditions: dose 0.2-5 µM
T2 sequence (Q15022 whole entry, looked up): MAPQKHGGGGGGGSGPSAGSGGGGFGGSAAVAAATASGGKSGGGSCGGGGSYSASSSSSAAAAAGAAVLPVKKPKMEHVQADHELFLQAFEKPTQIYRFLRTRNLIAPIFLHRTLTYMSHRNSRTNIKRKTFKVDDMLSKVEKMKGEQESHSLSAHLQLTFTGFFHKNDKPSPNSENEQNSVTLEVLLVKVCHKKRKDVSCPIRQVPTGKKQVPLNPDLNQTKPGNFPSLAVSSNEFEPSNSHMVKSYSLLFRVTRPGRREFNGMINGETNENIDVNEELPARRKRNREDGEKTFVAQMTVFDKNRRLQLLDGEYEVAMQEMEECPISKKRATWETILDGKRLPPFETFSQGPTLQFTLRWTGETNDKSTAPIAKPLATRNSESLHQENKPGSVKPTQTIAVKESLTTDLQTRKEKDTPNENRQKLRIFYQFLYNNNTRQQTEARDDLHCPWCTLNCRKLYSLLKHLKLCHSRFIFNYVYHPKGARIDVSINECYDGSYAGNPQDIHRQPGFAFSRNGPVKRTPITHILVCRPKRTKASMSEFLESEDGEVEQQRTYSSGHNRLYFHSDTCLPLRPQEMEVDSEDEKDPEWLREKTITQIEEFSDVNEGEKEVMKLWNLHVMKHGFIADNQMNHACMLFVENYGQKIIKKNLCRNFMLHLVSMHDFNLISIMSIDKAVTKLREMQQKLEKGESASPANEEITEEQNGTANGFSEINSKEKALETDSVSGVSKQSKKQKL
T2 sequence (Q96SW2 whole entry, looked up): as the sequence (Q96SW2 whole entry partner) above

K562 [5] = assay: Antiproliferative activity against human K562 cells assessed as cell growth inhibition incubated for 7 days by WST-8 assay; type: functional; conditions: time 7.0 day
[6] = biological target: T2, Protein cereblon/Polycomb protein SUZ12 (Homo sapiens); assay: PROTAC activity at CRBN/SUZ12 in human MDA-MB-468 cells assessed as degradation of SUZ12 protein expression at 0.2 to 5 uM incubated for 24 hrs by Western blotting analysis; type: cell-based; conditions: dose 0.2-5 µM
K562 [7] = assay: Antiproliferative activity against human K562 cells assessed as increase in HoxD mRNA expression at 10 uM incubated for 24 hrs by RT-qPCR analysis; type: functional, cell-based
[8] = biological target: T1, Protein cereblon/Polycomb protein EED; assay: PROTAC activity at CRBN/EED in human PC-3M cells assessed as degradation of EED protein expression at 0.2 to 5 uM incubated for 24 hrs by Western blotting analysis; type: cell-based; conditions: dose 0.2-5 µM
[9] = biological target: T3, Protein cereblon/Histone-lysine N-methyltransferase EZH2 (Homo sapiens) (UniProt Q15910+Q96SW2); assay: PROTAC activity at CRBN/EZH2 in human PC-3M cells assessed as degradation of EZH2 protein expression at 0.2 to 5 uM incubated for 24 hrs by Western blotting analysis; type: cell-based; conditions: dose 0.2-5 µM
T3 sequence (Q15910 whole entry, looked up): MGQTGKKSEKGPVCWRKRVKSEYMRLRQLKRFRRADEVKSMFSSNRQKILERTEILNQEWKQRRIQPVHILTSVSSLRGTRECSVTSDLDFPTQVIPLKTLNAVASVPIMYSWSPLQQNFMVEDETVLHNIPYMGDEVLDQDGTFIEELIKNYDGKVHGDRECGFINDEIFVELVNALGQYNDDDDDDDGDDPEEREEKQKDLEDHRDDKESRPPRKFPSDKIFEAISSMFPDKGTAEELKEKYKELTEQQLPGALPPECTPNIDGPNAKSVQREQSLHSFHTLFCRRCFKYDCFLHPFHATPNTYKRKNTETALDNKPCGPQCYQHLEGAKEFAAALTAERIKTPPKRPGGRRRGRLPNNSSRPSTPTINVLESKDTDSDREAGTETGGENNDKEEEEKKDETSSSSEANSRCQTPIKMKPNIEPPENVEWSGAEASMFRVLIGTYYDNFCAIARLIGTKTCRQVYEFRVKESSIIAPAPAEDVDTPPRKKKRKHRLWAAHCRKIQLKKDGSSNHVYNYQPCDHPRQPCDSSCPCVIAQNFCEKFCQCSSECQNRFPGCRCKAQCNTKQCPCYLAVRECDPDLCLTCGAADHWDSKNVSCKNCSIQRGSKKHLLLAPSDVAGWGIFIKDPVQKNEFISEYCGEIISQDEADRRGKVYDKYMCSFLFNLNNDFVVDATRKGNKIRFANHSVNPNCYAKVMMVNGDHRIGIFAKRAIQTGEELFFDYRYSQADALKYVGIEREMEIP
T3 sequence (Q96SW2 whole entry, looked up): as the sequence (Q96SW2 whole entry partner) above

[10] = biological target: T4, Protein cereblon/E3 ubiquitin-protein ligase RING2 (Homo sapiens, UniProt Q96SW2+Q99496); assay: PROTAC activity at CRBN/RING1B in human PC-3M cells assessed as degradation of RING1B protein expression at 0.2 to 5 uM incubated for 24 hrs by Western blotting analysis; type: cell-based; conditions: dose 0.2-5 µM
T4 sequence (Q96SW2 whole entry): as the sequence (Q96SW2 whole entry partner) above
T4 sequence (Q99496 2-336 partner limits assumed): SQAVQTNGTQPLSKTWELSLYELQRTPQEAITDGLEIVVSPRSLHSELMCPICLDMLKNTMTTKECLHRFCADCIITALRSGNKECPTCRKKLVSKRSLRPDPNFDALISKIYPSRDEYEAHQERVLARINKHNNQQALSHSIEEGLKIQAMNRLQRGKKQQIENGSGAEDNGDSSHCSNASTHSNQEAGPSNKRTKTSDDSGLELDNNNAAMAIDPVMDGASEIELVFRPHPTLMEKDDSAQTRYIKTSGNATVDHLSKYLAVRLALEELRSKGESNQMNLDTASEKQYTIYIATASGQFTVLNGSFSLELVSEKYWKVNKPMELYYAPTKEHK

[11] = biological target: T5, von Hippel-Lindau disease tumor suppressor/Polycomb complex protein BMI-1 (Homo sapiens) (UniProt P40337+P35226); assay: PROTAC activity at […] in human PC-3M cells assessed as degradation of BMI1 protein expression at 0.2 to 5 uM incubated for 24 hrs by Western blotting analysis; type: cell-based; conditions: dose 0.2-5 µM
T5 sequence (P35226 whole entry, looked up): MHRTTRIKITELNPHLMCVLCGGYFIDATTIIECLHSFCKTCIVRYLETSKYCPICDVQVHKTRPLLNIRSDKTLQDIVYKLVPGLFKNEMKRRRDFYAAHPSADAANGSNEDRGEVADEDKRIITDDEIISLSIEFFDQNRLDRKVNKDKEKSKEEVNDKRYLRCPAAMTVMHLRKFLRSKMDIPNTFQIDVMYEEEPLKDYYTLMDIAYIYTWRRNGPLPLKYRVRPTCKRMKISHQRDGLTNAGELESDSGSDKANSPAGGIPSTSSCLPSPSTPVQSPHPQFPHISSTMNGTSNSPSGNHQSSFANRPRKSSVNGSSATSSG
T5 sequence (P40337 whole entry, looked up): as the sequence (P40337 whole entry) above

[12] = biological target: T5, von Hippel-Lindau disease tumor suppressor/Polycomb complex protein BMI-1 (Homo sapiens); assay: PROTAC activity at […] in human K562 cells assessed as degradation of BMI1 protein expression at 1 to 10 uM incubated for 24 hrs by Western blotting analysis; type: cell-based; conditions: dose 1-10 µM
[13] = biological target: T4, Protein cereblon/E3 ubiquitin-protein ligase RING2; assay: PROTAC activity at CRBN/RING1B in human K562 cells assessed as degradation of RING1B protein expression at 1 to 10 uM incubated for 24 hrs by Western blotting analysis; type: cell-based; conditions: dose 1-10 µM
[14] = biological target: T3, Protein cereblon/Histone-lysine N-methyltransferase EZH2 (Homo sapiens); assay: PROTAC activity at CRBN/EZH2 in human MDA-MB-468 cells assessed as degradation of EZH2 protein expression at 0.2 to 5 uM incubated for 24 hrs by Western blotting analysis; type: cell-based; conditions: dose 0.2-5 µM
MDA-MB-468 [15] = assay: Induction of PRC2 degradation in human MDA-MB-468 cells assessed as reduction of H3K27me3 chromatin mark at 0.2 to 5 uM incubated for 24 hrs by Western blotting analysis; type: cell-based; conditions: dose 0.2-5 µM
K562 [16] = assay: Induction of PRC2 degradation in human K562 cells assessed as reduction of H3K27me3 chromatin mark at 1 to 10 uM incubated for 24 hrs by Western blotting analysis; type: cell-based; conditions: dose 1-10 µM
K562 [17] = assay: Antiproliferative activity against human K562 cells assessed as increase in HoxA mRNA expression at 10 uM incubated for 24 hrs by RT-qPCR analysis; type: functional, cell-based
PC-3M [18] = assay: Induction of PRC2 degradation in human PC-3M cells assessed as reduction of H3K27me3 chromatin mark at 0.2 to 5 uM incubated for 24 hrs by Western blotting analysis; type: cell-based; conditions: dose 0.2-5 µM
[19] = biological target: T5, von Hippel-Lindau disease tumor suppressor/Polycomb complex protein BMI-1 (Homo sapiens); assay: PROTAC activity at […] in human MDA-MB-468 cells assessed as degradation of BMI1 protein expression at 0.2 to 5 uM incubated for 24 hrs by Western blotting analysis; type: cell-based; conditions: dose 0.2-5 µM
[20] = biological target: T4, Protein cereblon/E3 ubiquitin-protein ligase RING2; assay: PROTAC activity at CRBN/RING1B in human MDA-MB-468 cells assessed as degradation of RING1B protein expression at 0.2 to 5 uM incubated for 24 hrs by Western blotting analysis; type: cell-based; conditions: dose 0.2-5 µM
PC-3M [21] = assay: Induction of PRC1 degradation in human PC-3M cells assessed as reduction of H2AK119ub chromatin mark at 0.2 to 5 uM incubated for 24 hrs by Western blotting analysis; type: cell-based; conditions: dose 0.2-5 µM
[22] = biological target: von Hippel-Lindau disease tumor suppressor/Histone-lysine N-methyltransferase EZH2 (Homo sapiens, UniProt Q15910+P40337); assay: PROTAC activity at VHL/EZH2 in human KARPAS-422 cells assessed as degradation of EZH2 protein expression by Western blotting analysis; type: cell-based
Sequence of von Hippel-Lindau disease tumor suppressor/Histone-lysine N-methyltransferase EZH2 (Q15910 whole entry): as the sequence (Q15910 whole entry, looked up) above
Sequence of von Hippel-Lindau disease tumor suppressor/Histone-lysine N-methyltransferase EZH2 (P40337 whole entry): as the sequence (P40337 whole entry) above

SMILES: Cc1nc(CCC(=O)NCCOc2ccc(OCC(=O)N[C@H](C(=O)N3C[C@H](O)C[C@H]3C(=O)NCc3ccc(-c4scnc4C)cc3)C(C)(C)C)cc2)ccc1-c1cnc(NCc2c(F)ccc3c2CCO3)n2cnnc12
- Activity (MDA-MB-468 [1]): inactive
- DC50 [2]: < 0.12 µM
- Activity [3]: Active
- Activity [4]: Active
- Activity (K562 [5]): inactive
- Activity [6]: Active
- Activity (K562 [7]): inactive
- Activity [8]: Active
- Activity [9]: Active
- Activity [10]: inactive
- Activity [11]: inactive
- Activity [12]: inactive
- Activity [13]: inactive
- Activity [14]: Active
- Activity (MDA-MB-468 [15]): Active
- Activity (K562 [16]): Active
- Activity (K562 [17]): inactive
- Activity (PC-3M [18]): Active
- Activity [19]: inactive
- Activity [20]: inactive
- Activity (PC-3M [21]): inactive
- DC50 [22]: < 0.12 µM
